ChEMBL document CHEMBL1125067, “Synthesis and structural requirements of N-substituted norapomorphines for affinity and activity at dopamine D-1, D-2, and agonist receptor sites in rat brain” (J Med Chem, 1990)

Assays:
[1] = system: Rattus norvegicus; experiment: Stereotyped behavior was tested in rats at (ip) administration of 3 mg/kg (N=6).scores were compared as the percent of that obtained with apomorphine; type: functional
[2] = biological target: D(1A) dopamine receptor (Rattus norvegicus, UniProt P18901)
Description: Dopamine receptor D1 affinity was tested in vitro against corpus striatum from rat brain membranes

[3] = biological target: D(2) dopamine receptor (Rattus norvegicus, UniProt P61169)
Chain of D(2) dopamine receptor (P61169 whole entry): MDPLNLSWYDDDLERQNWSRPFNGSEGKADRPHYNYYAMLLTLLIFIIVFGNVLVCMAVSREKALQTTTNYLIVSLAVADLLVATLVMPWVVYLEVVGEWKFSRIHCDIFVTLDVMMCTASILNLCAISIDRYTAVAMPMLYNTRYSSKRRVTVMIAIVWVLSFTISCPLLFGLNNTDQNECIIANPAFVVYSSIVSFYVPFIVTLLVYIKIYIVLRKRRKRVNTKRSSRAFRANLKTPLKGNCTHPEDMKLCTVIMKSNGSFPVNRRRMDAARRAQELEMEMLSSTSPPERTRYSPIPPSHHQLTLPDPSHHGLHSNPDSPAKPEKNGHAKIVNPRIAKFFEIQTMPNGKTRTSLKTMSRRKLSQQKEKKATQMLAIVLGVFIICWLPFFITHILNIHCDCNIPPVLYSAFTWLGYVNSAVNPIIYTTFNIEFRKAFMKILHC
Description: Dopamine receptor D2 affinity was tested in vitro against corpus striatum from rat brain membranes

Chain of D(1A) dopamine receptor (P18901 whole entry): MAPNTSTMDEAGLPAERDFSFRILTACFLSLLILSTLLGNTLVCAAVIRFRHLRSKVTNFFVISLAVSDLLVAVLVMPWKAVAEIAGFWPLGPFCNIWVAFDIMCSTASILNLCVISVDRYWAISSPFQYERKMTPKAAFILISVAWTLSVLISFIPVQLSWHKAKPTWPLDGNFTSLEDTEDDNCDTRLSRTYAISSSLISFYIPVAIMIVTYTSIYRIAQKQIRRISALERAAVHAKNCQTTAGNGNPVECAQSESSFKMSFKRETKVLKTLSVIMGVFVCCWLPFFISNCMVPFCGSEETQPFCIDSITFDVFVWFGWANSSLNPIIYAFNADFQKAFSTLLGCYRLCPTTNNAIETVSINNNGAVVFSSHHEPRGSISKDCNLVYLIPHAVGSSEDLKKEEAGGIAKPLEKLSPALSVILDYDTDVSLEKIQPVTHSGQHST

SMILES	Stereotypy score [1]	Ki [2] [nM]	Ki [3] [nM]
CCCN1CCc2cccc3c2[C@H]1Cc1ccc(O)c(O)c1-3.Cl	99		
CC(C)CN1CCc2cccc3c2[C@H]1Cc1ccc(O)c(O)c1-3.Cl	3	> 10000	490
Cl.Oc1ccc2c(c1O)-c1cccc3c1[C@@H](C2)NCC3	26	390	
Cl.Oc1ccc2c(c1O)-c1cccc3c1[C@@H](C2)N(CC1CC1)CC3	106	730	0.43
Br.C=CCN1CCc2cccc3c2[C@H]1Cc1ccc(O)c(O)c1-3	86	615	
CCN1CCc2cccc3c2[C@H]1Cc1ccc(O)c(O)c1-3.Cl	97	124	
Cl.OCCN1CCc2cccc3c2[C@H]1Cc1ccc(O)c(O)c1-3	0	> 10000	
Cl.Oc1ccc2c(c1O)-c1cccc3c1[C@@H](C2)N(CC(F)(F)F)CC3	2	> 50000	
CC(C)N1CCc2cccc3c2[C@H]1Cc1ccc(O)c(O)c1-3.Cl	0	> 10000	
Oc1ccc2c(c1O)-c1cccc3c1[C@@H](C2)N(CC(F)(F)C(F)(F)F)CC3		> 50000	
CN1CCc2cccc3c2[C@H]1Cc1ccc(O)c(O)c1-3.CN1CCc2cccc3c2[C@H]1Cc1ccc(O)c(O)c1-3.Cl.Cl.O [APOMORPHINE HYDROCHLORIDE]	100		
